Measured values reported in PMC9610793, “Novel Aporphine- and Proaporphine–Clerodane Hybrids Identified from the Barks of Taiwanese Polyalthia longifolia (Sonn.) Thwaites var. pendula with Strong Anti-DENV2 Activity” (Pharmaceuticals, 2022).

How the values were obtained:
[1] = test system: DENV2; experiment: In vitro anti-DENV2 post-infection assay: DENV2 RNA level by RT-qPCR in DENV2-infected Huh-7 cells; format: cell-based, DENV serotype 2 (strain 16681); conditions: for IC50 / EC50: Dengue virus; for IC50: DENV2, Huh-7, 72 h, read-out: IC50 (concentration of the compound resulting in a 50% inhibition in virus production); for EC50: DENV2-infected Huh-7 cells, range over compounds 1–4; for SI (selectivity index, SI = CC50/IC50): CC50 in uninfected Huh-7 cells / IC50 against DENV2
Method: Concerning their biological activity, the anti-DENV2 activity of polyalongarins A–D (1–4) was examined using post-infection assay. The DENV2-infected Huh-7 cells were incubated with each of 1–4 at a concentration of 5, 10, or 20 μM for 72 hrs (0.2 μM celastrol and 0.1% DMSO served as positive control and mock control, respectively). […] Based on previous reports, a compound that diminishes the DENV activity by 90% but presents a 50% cytotoxic concentration (CC50) > 15 μM is considered a “hit”. By this definition, compounds 1–4 are good hits without doubt.
(§1) Figure 5 In vitro anti-DENV2 assay for 1–4. (A) DENV2-infected/uninfected Huh-7 cells were incubated with celastrol (Cela, 0.2 μM, positive control) or indicated concentrations of 1–4 (5 to 25 μM) for 72 h. Total DENV2 RNA expression (%) was extracted and quantified. The DENV2 RNA level was measured by RT-qPCR. The DENV2 RNA expression was normalized by cellular GAPDH mRNA. (B) DENV2-infected Huh-7 cells were treated with 10 μM of 1–4. The NS2B protein expression was analyzed by western blotting with anti-NS2B and anti-GAPDH antibodies (a loading control). (C) The cell viability (%) was determined by the XTT method. Treatment with 0.1% DMSO served as a mock control. The results are expressed as the means ± standard errors of the means (SEM) of triplicate experiments.
Huh-7 human liver carcinoma cell line, purchased from Bioresources Collection and Research Center, Taiwan, were maintained in Dulbecco’s modified Eagle’s medium (DMEM) supplemented with 10% fetal bovine serum (FBS), 1% non-essential amino acids (NEAA), and 1% penicillin and streptomycin at 37 °C in a humidified 5% CO2 incubator. The DENV serotype 2 (strain 16681) was directly from the Centers for Disease Control, Department of Health, Taiwan, and was amplified in Aedes albopictus C6/36 cell line (CRL-1660, ATCC, USA). C6/36 cells were cultured in RPMI 1640 medium supplemented with 2% FBS. Huh-7 cells were seeded at a density of 5 × 10^4 cells/mL in the 24-well plate for 16–20 h and then infected with DENV2 at a multiplicity of infection (MOI) of 0.1 PFU/cell for 2 h at 37 °C. The viral titer was determined in a plaque assay in the Huh-7 cells. Then, DENV2-infected Huh-7 cells were washed with PBS and refilled, respectively, with DMEM−2% FBS medium containing […] (positive control), 0.1% DMSO (mock control), and various indicating concentration of test compounds. After incubation at 37 °C for 72 h, DENV2-infected Huh-7 cells were harvested and cell lysates were prepared for quantification of DENV RNA by RT-qPCR. Total cellular RNA was extracted using Total RNA Miniprep Purification Kit (GMbiolab, Taiwan) according to the manufacturer’s instructions.

[2] = Cytotoxic assay (XTT cell viability); format: cell-based; conditions: human, uninfected Huh-7 cells, read-out: CC50 (concentration of the compound causing a 50% growth inhibition of uninfected Huh-7 cells)
Method: as §1
In structural elucidation, the optical rotations were determined using a JASCO P-1020 polarimeter (Jasco Co., Tokyo, Japan); the ultraviolet spectra (UV) were recorded on a JASCO V530 UV/VIS spectrophotometer; the circular dichroism spectroscopy (CD) were recorded on a JASCO J-815 spectrophotometer; the infrared spectra (IR) were recorded on a Mattson Genesis II FT-IR spectrophotometer (Thermo Nicolet, Madison, WI, USA); electrospray ionization mass (ESIMS) and high-resolution ESIMS data were measured using a VG Biotech Quattro 5022 mass spectrometer (VG Biotech, UK); nuclear magnetic resonance (NMR) spectra were collected on a Varian Unity Inova-400 MHz NMR system; the single crystal X-ray diffraction of pure compounds was determined by Bruker APEX II X-ray single crystal diffractometer. In chemical isolation and separation, column chromatography (CC) was applied including silica gel 60 (70–230 and 230–400 mesh, Merck, Darmstadt, Germany), Sephadex LH-20 (Pharmacia), and pre-coated silica gel TLC plates (aluminum Merck Silica gel 60 F254). […] In biological evaluation, cell viability/cytotoxicity assay was evaluated using CellTiter 96 AQueous One Solution Cell Proliferation Assay (Promega, Madison, WI, USA) according to the manufacturer’s instructions, where the color intensity was detected at 490 nm using a 550 BioRad plate-reader for determining the number of viable cells in proliferation. Computational modeling analyzed by PyMOL 2.0 software (creator is Warren L. DeLano; published by Schrödinger, Inc. 2017; and the latest vision is PyMOL 2.5 vision).
Huh-7 cells were seeded in 96-well plates at a density 5 × 10^4 cells/well in 120 μL of culture medium and incubated for 6 hr in a humidified CO2 (5%) atmosphere. […] Then, the XTT method was applied to cell viability evaluation: cells were dyed by 2,3-bis(2-methyloxy-4-nitro-5-sulfophenyl)-2H-tetrazolium-5-carboxanilide and recorded by an enzyme-linked immunosorbent assay (ELISA) plate reader (at UV 490 nm). […]

With `CC1=CCCC2C1(C)CCC(C)C2(C)CCC1=CC(=O)OC1N1CCc2cc3c(c4c2C1Cc1ccccc1-4)OCO3` (stereo not shown) [polyalongarin A (1), Polyalongarin A] the IC50 [1] was 4.46 ± 0.12 µM, the EC50 [1] was 2.8 to 6.4 µM and the CC50 at 72 h [2] was over 200 µM.
For `COc1c2c3c(c(OC)c1OC)-c1ccccc1C[C@H]3N([C@@H]1OC(=O)C=C1CC[C@@]1(C)[C@H](C)CC[C@@]3(C)C(C)=CCC[C@H]13)CC2` [polyalongarin B (2), Polyalongarin B], the “SI (selectivity index, SI = CC50/IC50)” value [1] was 18, the IC50 [1] was 2.8 ± 0.23 µM and the EC50 [1] was 2.8 to 6.4 µM. It also gave a CC50 at 72 h [2] of 50.4 ± 10.2 µM.
`CC1=C(O)C(=O)C=C2C1=CC=C1[C@@]2(C)CC[C@@]2(C)[C@@H]3C[C@](C)(C(=O)O)CC[C@]3(C)CC[C@]12C` [Celastrol, reference compound] showed an IC50 [1] of 0.12 ± 0.01 µM.
For `COc1cc2c(cc1O)CC1c3c(cc(OC)c(OC)c3-2)CCN1C1OC(=O)C=C1CCC1(C)C(C)CCC2(C)C(C)=CCCC21` (stereo not shown) [polyalongarin C (3), Polyalongarin C], the “SI (selectivity index, SI = CC50/IC50)” value [1] was 21.3, the IC50 [1] was 3.24 ± 0.16 µM and the EC50 [1] was 2.8 to 6.4 µM. It also gave a CC50 at 72 h [2] of 69.1 ± 14 µM.
In the case of `COc1cc2c3c(c1OC)C1(C=CC(=O)C=C1)C[C@H]3N([C@@H]1OC(=O)C=C1CC[C@@]1(C)[C@H](C)CC[C@@]3(C)C(C)=CCC[C@H]13)CC2` [polyalongarin D (4), Polyalongarin D], the “SI (selectivity index, SI = CC50/IC50)” value [1] is reported as 14.9, the IC50 [1] is reported as 6.36 ± 0.09 µM and the EC50 [1] is reported as 2.8 to 6.4 µM. For the same compound, the CC50 at 72 h [2] was 94.5 ± 10.2 µM.
